The text below walks through data of patent US20230227466A1, “SUBSTITUTED THIENOPYRIMIDINES THAT INTERACT WITH THE RAS SUPERFAMILY FOR THE TREATMENT OF CANCERS, INFLAMMATORY DISEASES, RASOPATHIES, AND FIBROTIC DISEASE” (SHY Therapeutics, LLC, priority 2020, published 2023).

Each structure is given as a SMILES string. Where two headings read alike, the source gives them in different places.

In one test the target is T1, KRas G12D mutant (Homo sapiens, UniProt P01116, G12D).
T1 construct: made in house
The experiment in a line: Ras GTP binding domain inhibition assay (labeled-GTP competition, cell-free). In a few lines:
(§1)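 His-tagged GTPases were coated at 10-30 μg/mL onto nickel plates overnight at 4° C, then exposed to compound (20 μM, or serial dilutions for IC50) in buffer with 1% DMSO for 3 h at room temperature, with or without 10-30 μg/mL His-Sos (556-1049) in the final hour. Cy3- or Cy5-GTP (100 nM, 45 min) binding was measured after washing.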

For another test, the target named is T2, KRas G12C mutant (Homo sapiens, UniProt P01116, G12C).
T2 construct: made in house
The test is described as above. In a few lines:
as §1

For another test, the target named is T3, KRas Q61H mutant (Homo sapiens, UniProt P01116, Q61H).
T3 construct: made in house
Described as above. In a few lines: as §1

The test system of test [1] is MIA-PaCa-2 pancreatic cancer cell line (KRAS G12C). The experiment in a line: Cell proliferation assay (CellTiter 96 Aqueous One). It is filed as cell-based. To be noted: Homo sapiens; for inhibition at 10 µM: MIA PaCa-2, read-out: % inh cell proliferation (10 μM) in MIA PaCa-2. A digest of the protocol: (§2)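 After overnight attachment, compounds are added (10 μM final or serial dilutions) and left 2–4 days, with viability then measured by MTS.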

For test [2], the system named is SW-620 colorectal cancer cell line (KRAS G12V). The test is described as above. In kind it is cell-based. To be noted: Homo sapiens; SW-620, 2-4 days, 10% FBS. In a few lines:
as §2

Test [3] relates to PANC-1 pancreatic cancer cell line (KRAS G12D). The description is as above. In kind it is cell-based. The following applies: Homo sapiens; PANC-1, 2-4 days, 10% FBS. A digest of the protocol:
as §2

The mark [4] stands for this setting: with SOS, read-out: KRas G12D mutant + SOS: % inh.
Setting [5] is: without SOS, read-out: KRas G12D mutant: % inh.
[6] abbreviates: with SOS, read-out: KRas G12C mutant + SOS: % inh.
Setting [7] is: without SOS, read-out: KRas G12C mutant: % inh.
[8] abbreviates: with SOS, read-out: KRas Q61H mutant + SOS: % inh.
The mark [9] stands for this setting: without SOS, read-out: KRas Q61H mutant: % inh.

Broadly, the IC50 is the concentration at which inhibition is half-maximal. Consider `CO[C@H]1CC[C@@H](Nc2nc(-c3nccn3C)nc3sc(-c4cn(C)cn4)c(-c4ccccc4)c23)C1` (racemic) [Example 3, Rac-N-((1R,3S)-3-methoxycyclopentyl)-2-(1-methyl-1H-imidazol-2-yl)-6-(1-methyl-1H-imidazol-4-yl)-5-phenylthieno[2,3-d]pyrimidin-4-amine], for which the inhibition at 20 µM at KRas G12D mutant (setting [4]), on KRas G12D mutant (setting [5]), at KRas G12C mutant (setting [6]), at KRas G12C mutant (setting [7]), at KRas Q61H mutant (setting [8]) and at KRas Q61H mutant (setting [9]) was 76 to 100% in each case. Also, the IC50 at KRas Q61H mutant (with SOS) was in the range of 5 to 10 µM; in test [1] (MIA PaCa-2, MIA PaCa-2), 1 to 4.99 µM. In addition, in test [1], the inhibition at 10 µM is 76 to 100%.

Consider `COc1ccn2c(-c3nc(O)c4scc(-c5ccccn5)c4n3)ncc2c1` [Compound 85, 2-(7-Methoxyimidazo[1,5-a]pyridin-3-yl)-7-(pyridin-2-yl)thieno[3,2-d]pyrimidin-4-ol], for which the inhibition at 20 µM at KRas G12D mutant (setting [4]) was 26 to 50%; on KRas G12D mutant (setting [5]) it was 51 to 75%; at KRas G12C mutant (setting [6]) it was 1 to 25%; on KRas G12C mutant (setting [7]), 26 to 50%; at KRas Q61H mutant (setting [8]), 26 to 50%; at KRas Q61H mutant (setting [9]) it was 51 to 75%. Also, the IC50 in test [1] (MIA PaCa-2, MIA PaCa-2) was 5 to 10 µM. Further, the inhibition at 10 µM in test [1] was in the range of 51 to 75%.

Take `COc1ccc2cnc(-c3nc(O)c4scc(-c5ccccn5)c4n3)n2c1` [Compound 86, 2-(6-Methoxyimidazo[1,5-a]pyridin-3-yl)-7-(pyridin-2-yl)thieno[3,2-d]pyrimidin-4-ol]: the inhibition at 20 µM lay within 51 to 75% at KRas G12D mutant (setting [4]); 51 to 75% at KRas G12D mutant (setting [5]); 26 to 50% at KRas G12C mutant (setting [6]); 26 to 50% at KRas G12C mutant (setting [7]); 51 to 75% on KRas Q61H mutant (setting [8]); 26 to 50% on KRas Q61H mutant (setting [9]). The molecule further showed an IC50 in test [1] (MIA PaCa-2, MIA PaCa-2) of 5 to 10 µM. The inhibition at 10 µM in test [1] lay within 51 to 75%.

For `COCCn1c(-c2nc(O)c3scc(-c4ccccn4)c3n2)nc2ccccc21` [Compound 87, 2-(1-(2-Methoxyethyl)-1H-benzo[d]imidazol-2-yl)-7-(pyridin-2-yl)thieno[3,2-d]pyrimidin-4-ol], the inhibition at 20 µM lay within 26 to 50% on KRas G12D mutant (setting [4]); 51 to 75% at KRas G12D mutant (setting [5]); 1 to 25% on KRas G12C mutant (setting [6]); 1 to 25% on KRas G12C mutant (setting [7]); 26 to 50% on KRas Q61H mutant (setting [8]); 1 to 25% on KRas Q61H mutant (setting [9]). In addition, the IC50 was less than 0.4 µM in test [2]; 5 to 10 µM in test [1] (MIA PaCa-2, MIA PaCa-2); more than 3 µM in test [1] (MIA PaCa-2, MIA-PaCa-2, 2-4 days, 10% FBS); less than 0.4 µM in test [3]. Further, the inhibition at 10 µM in test [1] was in the range of 76 to 100%.

Take `Oc1nc(-c2ccncn2)nc2c(-c3ccccn3)csc12` [Compound 88, 7-(Pyridin-2-yl)-2-(pyrimidin-4-yl)thieno[3,2-d]pyrimidin-4-ol]: the inhibition at 20 µM at KRas G12D mutant (setting [4]) fell in the range of 26 to 50%; at KRas G12D mutant (setting [5]) it was 51 to 75%; on KRas G12C mutant (setting [6]) it was 26 to 50%; at KRas G12C mutant (setting [7]), 1 to 25%; at KRas Q61H mutant (setting [8]) it was 26 to 50%; at KRas Q61H mutant (setting [9]), 26 to 50%. The same molecule came in with an IC50 in test [1] (MIA PaCa-2, MIA PaCa-2) of more than 10 µM. Besides, in test [1], the inhibition at 10 µM was in the range of 26 to 50%.

For `Oc1nc(-c2cccnc2)nc2c(-c3ccccn3)csc12` [Compound 89, 7-(Pyridin-2-yl)-2-(pyridin-3-yl)thieno[3,2-d]pyrimidin-4-ol], the inhibition at 20 µM at KRas G12D mutant (setting [4]) was 0%; at KRas G12D mutant (setting [5]) it was 0%; on KRas G12C mutant (setting [6]) it was 0%; on KRas G12C mutant (setting [7]) it was 0%; on KRas Q61H mutant (setting [8]), 1 to 25%; on KRas Q61H mutant (setting [9]), 1 to 25%. The half-maximal inhibitory concentration (IC50) in test [1] (MIA PaCa-2, MIA PaCa-2) was more than 10 µM. Further, in test [1], the inhibition at 10 µM was 26 to 50%.

In the case of `Cn1ccc(-c2nc(O)c3scc(-c4ccccn4)c3n2)n1` [Compound 90, 2-(1-Methyl-1H-pyrazol-3-yl)-7-(pyridin-2-yl)thieno[3,2-d]pyrimidin-4-ol], the inhibition at 20 µM lay in the range of 1 to 25% at KRas G12D mutant (setting [4]); 26 to 50% at KRas G12D mutant (setting [5]); 1 to 25% on KRas G12C mutant (setting [6]); 1 to 25% on KRas G12C mutant (setting [7]); 26 to 50% at KRas Q61H mutant (setting [8]); 1 to 25% on KRas Q61H mutant (setting [9]). In test [1] (MIA PaCa-2, MIA PaCa-2), this molecule had an IC50 of more than 10 µM. For the same molecule, the inhibition at 10 µM in test [1] is 1 to 25%.

Take `Cn1nccc1-c1nc(O)c2scc(-c3ccccn3)c2n1` [Compound 91, 2-(1-Methyl-1H-pyrazol-5-yl)-7-(pyridin-2-yl)thieno[3,2-d]pyrimidin-4-ol]: the inhibition at 20 µM at KRas G12D mutant (setting [4]) is 1 to 25%; at KRas G12D mutant (setting [5]), 1 to 25%; at KRas G12C mutant (setting [6]), 1 to 25%; on KRas G12C mutant (setting [7]), 0%; at KRas Q61H mutant (setting [8]), 26 to 50%; on KRas Q61H mutant (setting [9]), 1 to 25%. This molecule also returned an IC50 in test [1] (MIA PaCa-2, MIA PaCa-2) of more than 10 µM. Also, the inhibition at 10 µM in test [1] was determined as 0%.

`Cc1cnc(-c2nc(O)c3scc(-c4ccccn4)c3n2)s1` [Compound 92, 2-(5-Methylthiazol-2-yl)-7-(pyridin-2-yl)thieno[3,2-d]pyrimidin-4-ol]: the inhibition at 20 µM on KRas G12D mutant (setting [4]) fell in the range of 51 to 75%; on KRas G12D mutant (setting [5]), 76 to 100%; on KRas G12C mutant (setting [6]) it was 51 to 75%; at KRas G12C mutant (setting [7]) it was 51 to 75%; at KRas Q61H mutant (setting [8]) it was 51 to 75%; at KRas Q61H mutant (setting [9]), 76 to 100%. In test [1] (MIA PaCa-2, MIA PaCa-2), this molecule had an IC50 of more than 10 µM. The inhibition at 10 µM in test [1] is 0%.

On to `COCCn1ccnc1-c1nc(O)c2scc(-c3ccncc3)c2n1` [Compound 94, 2-(1-(2-Methoxyethyl)-1H-imidazol-2-yl)-7-(pyridin-4-yl)thieno[3,2-d]pyrimidin-4-ol], for which the inhibition at 20 µM at KRas G12D mutant (setting [4]) was 76 to 100%; at KRas G12D mutant (setting [5]), 76 to 100%; on KRas G12C mutant (setting [6]), 51 to 75%; on KRas G12C mutant (setting [7]), 51 to 75%; at KRas Q61H mutant (setting [8]), 51 to 75%; at KRas Q61H mutant (setting [9]), 51 to 75%. Moreover, the IC50 in test [1] (MIA PaCa-2, MIA PaCa-2) was in the range of 5 to 10 µM. For the same molecule, in test [1], the inhibition at 10 µM was 51 to 75%.

`COc1nc(-c2nccn2C)nc2c(-c3ncccc3F)csc12` [Compound 95, 7-(3-Fluoropyridin-2-yl)-4-methoxy-2-(1-methyl-1H-imidazol-2-yl)thieno[3,2-d]pyrimidine]: the inhibition at 20 µM on KRas G12D mutant (setting [4]), at KRas G12D mutant (setting [5]), at KRas G12C mutant (setting [6]), on KRas G12C mutant (setting [7]), on KRas Q61H mutant (setting [8]) and on KRas Q61H mutant (setting [9]) was 76 to 100% in each case. Besides, the IC50 in test [1] (MIA PaCa-2, MIA PaCa-2) was more than 10 µM. Moreover, the inhibition at 10 µM in test [1] came to 0%.

For `CO[C@H]1C[C@@H](Nc2nc(-c3nccn3C)nc3sc(-c4cn(C)cn4)c(-c4ccccc4)c23)C1` [Example 2, N-((1s,3s)-3-methoxycyclobutyl)-2-(1-methyl-1H-imidazol-2-yl)-6-(1-methyl-1H-imidazol-4-yl)-5-phenylthieno[2,3-d]pyrimidin-4-amine], the inhibition at 20 µM fell in the range of 51 to 75% on KRas G12D mutant (setting [4]); 51 to 75% at KRas G12D mutant (setting [5]); 76 to 100% at KRas G12C mutant (setting [6]); 76 to 100% on KRas G12C mutant (setting [7]); 76 to 100% at KRas Q61H mutant (setting [8]); 51 to 75% at KRas Q61H mutant (setting [9]). The IC50 on KRas Q61H mutant (with SOS) is 1 to 4.99 µM; in test [1] (MIA PaCa-2, MIA PaCa-2), 1 to 4.99 µM. Besides, in test [1], the inhibition at 10 µM was in the range of 51 to 75%.
